Results published in patent US20100234372A1, “SUBSTITUTED 2-MERCAPTOQUINOLINE-3-CARBOXAMIDES AS KCNQ2/3 MODULATORS” (GRUNENTHAL GMBH, priority 2009, published 2010).

Target: T1, KCNQ2/3 channels (Homo sapiens, UniProt O43525+O43526)
T1 construct: expressed in transfected cells; host or cells: CHO-K1 cells
Test: Fluorescence assay using a voltage-sensitive dye (fluorimetry)
Format: cell-based
Conditions: for EC50: CHO-K1 cells expressing KCNQ2/3 channels; for Emax at 1 µM: 50 μM retigabine = 100%, CHO-K1 cells expressing KCNQ2/3, read-out: Fluorimetry % efficacy at 1 μM (50 μM retigabine = 100%)
Protocol: […] CHO-K1 cells expressing KCNQ2/3 channels are cultivated adherently at 37° C., 5% CO2 and 95% humidity in cell culture bottles (e.g. 80 cm^2 TC flasks, Nunc) with DMEM-high glucose (Sigma Aldrich, D7777) including 10% FCS (PAN Biotech, e.g. 3302-P270521) or alternatively MEM Alpha Medium (1×, liquid, Invitrogen, #22571), 10% foetal calf serum (FCS) (Invitrogen, #10270-106, heat-inactivated) and the necessary selection antibiotics.
Before being seeded out for the measurements, the cells are washed with a 1×DPBS buffer without Ca^2+/Mg^2+ (e.g. Invitrogen, #14190-094) and detached from the bottom of the culture vessel by means of Accutase (PAA Laboratories, #L11-007) (incubation with Accutase for 15 min at 37° C.). The cell count then present is determined using a CASY™ cell counter (TCC model, Scharfe System) in order subsequently to apply 20,000 to 30,000 cells/well/100 μl of the described nutrient medium, depending on density optimisation for the individual cell line, to 96-well measuring plates of the Corning™ CeIIBIND™ type (flat clear-bottom black polystyrene microplates, #3340). Incubation is then carried out for one hour at room temperature, without gassing or adjusting the humidity, followed by incubation for 24 hours at 37° C., 5% CO2 and 95% humidity.
The voltage-sensitive fluorescent dye from the Membrane Potential Assay Kit (Red™ bulk format part R8123 for FLIPR, MDS Analytical Technologies™) is prepared by dissolving the contents of a vessel of Membrane Potential Assay Kit Red Component A in 200 ml of extracellular buffer (ES buffer, 120 mM NaCl, 1 mM KCl, 10 mM HEPES, 2 mM CaCl2, 2 mM MgCl2, 10 mM glucose; pH 7.4). After removal of the nutrient medium, the cells are washed with 200 μl of ES buffer, then covered with a layer of 100 μl of the dye solution prepared above and incubated for 45 min at room temperature with exclusion of light.
The fluorescence measurements are carried out with a BMG Labtech FLUOstar™, BMG Labtech NOVOstar™ or BMG Labtech POLARstar™ instrument (525 nm excitation, 560 nm emission, bottom-read mode). After incubation of the dye, 50 μl of the substances to be tested in the desired concentrations, or 50 μl of ES buffer for control purposes, are introduced into separate cavities of the measuring plate and incubated for 30 min at room temperature whilst being shielded from light. The fluorescence intensity of the dye is then measured for 5 min and the fluorescence value F1 of each well is thus determined at a given, constant time. 15 μl of a […] KCl solution ([…]) are then added to each well. The change in fluorescence is subsequently measured until all relevant measured values have been obtained (mainly 5-30 min). At a given time after KCl application, a fluorescence value F2 is determined, in this case at the time of the fluorescence peak.
For calculation, the fluorescence intensity F2 is compared with the fluorescence intensity F1, and the agonistic activity of the target compound on the potassium channel is determined therefrom. F2 and F1 are calculated as follows: […]
is determined by adding to the reaction batch only the buffer solution instead of the substance to be tested, determining the value F1K of the fluorescence intensity, adding the potassium ions as described above and measuring a value F2K of the fluorescence intensity. Then F2K and F1K are calculated as follows: […]
Calculations of EC50 values are carried out with the aid of Prism v4.0 software (GraphPad Software™).

Compound | EC50 [nM] | Emax at 1 µM [%]
CCCCCSc1nc2ccccc2cc1C(=O)NCc1cccs1 [compound 1, 2-(Pentylthio)-N-(2-thienylmethyl)-3-quinoline carboxamide] | 744 | 143
COC(=O)CCSc1nc2ccccc2cc1C(=O)NCc1cccs1 [compound 2, 3-{[3-[Oxo-(2-thienylmethylamino)methyl]-2-quinolyl]thio}propanoic acid methyl ester] |  | 26
O=C(NCc1cccs1)c1cc2ccccc2nc1SCCCC1CCCCC1 [compound 3] | 1930 | 77
O=C(NCc1cccs1)c1cc2ccccc2nc1SCCCc1ccccc1 [compound 4] | 144 | 168
O=C(NCc1cccs1)c1cc2ccccc2nc1SCCS(=O)(=O)c1ccccc1 [compound 5, 2-[2-(Phenylsulfonyl)ethylthio]-N-(2-thienyl-methyl)-3-quinoline carboxamide] | 2660 | 98
O=C(NCc1cccs1)c1cc2ccccc2nc1SCCCc1ccc(F)cc1 [compound 6] | 1220 | 111
CCSc1nc2ccccc2cc1C(=O)NCc1cccs1 [compound 7, 2-(Ethylthio)-N-(2-thienylmethyl)-3-quinoline carboxamide] | 1350 | 
O=C(NCc1cccs1)c1cc2cc(C(F)(F)F)ccc2nc1SCCS(=O)(=O)c1ccccc1 [compound 8, 2-[2-(Phenylsulfonyl)ethylthio]-N-(2-thienyl-methyl)-6-(trifluoromethyl)-3-quinoline carboxamide] |  | 46
O=C(NCc1cccs1)c1cc2ccc(C(F)(F)F)cc2nc1SCCS(=O)(=O)c1ccccc1 [compound 9] |  | 26
O=C(NCc1cccs1)c1cc2c(C(F)(F)F)cccc2nc1SCCS(=O)(=O)c1ccccc1 [compound 10] |  | 9
CCCCCSc1nc2ccc(C(F)(F)F)cc2cc1C(=O)NCc1cccs1 [compound 11, 2-(Pentylthio)-N-(2-thienylmethyl)-6-(trifluoromethyl)-3-quinoline carboxamide] |  | 41
CCSc1nc2ccc(C(F)(F)F)cc2cc1C(=O)NCc1cccs1 [compound 12] | 412 | 155
O=C(NCc1cccs1)c1cc2ccccc2nc1SCCS(=O)(=O)c1cccc(C(F)(F)F)c1 [compound 13, N-(2-Thienylmethyl)-2-[2-[3-(trifluoromethyl)-phenyl]sulfonylethylthio]-3-quinoline carboxamide] | 991 | 136
CCCCCSc1nc2cc(C(F)(F)F)ccc2cc1C(=O)NCc1cccs1 [compound 15] | 778 | 145
O=C(NCc1cccs1)c1cc2ccccc2nc1SCCS(=O)(=O)c1ccc(F)cc1 [compound 16] | 78 | 164
Cc1ccc(S(=O)(=O)CCSc2nc3ccccc3cc2C(=O)NCc2cccs2)cc1 [compound 17] |  | 77
Cc1ccc(SCCSc2nc3ccccc3cc2C(=O)NCc2cccs2)cc1 [compound 18] |  | 72
O=C(NCC1CCCCC1)c1cc2ccccc2nc1SCCS(=O)(=O)c1ccccc1 [compound 19] | 167 | 71
Cc1ccc(CCCSc2nc3ccccc3cc2C(=O)NCc2cccs2)cc1 [compound 20] |  | 64
O=C(NCc1cccs1)c1cc2ccccc2nc1SCCSc1ccccc1 [compound 21] | 119 | 30
O=C(NCCC1CCCCC1)c1cc2ccccc2nc1SCCS(=O)(=O)c1ccccc1 [compound 22] |  | 15
CC(C)(C)CCNC(=O)c1cc2ccccc2nc1SCCS(=O)(=O)c1ccccc1 [compound 23] |  | 14
O=C(NCc1cccs1)c1cc2ccccc2nc1SCCSc1ccc(F)cc1 [compound 24] |  | 27
CCSc1nc2cc(C(F)(F)F)ccc2c(C)c1C(=O)NCCC(C)(C)C [compound 25] |  | 8
CCSc1nc2cc(C(F)(F)F)ccc2c(C)c1C(=O)NCC(C)(C)C [compound 28] |  | 47
